This passage reports IC50 results from patent US7790711B2, “Inhibitors of 11β-Hydroxysteroid Dehydrogenase” (Hoffmann-La Roche Inc., priority 2007, dated 2010).

SMILES strings stand for the structures.

In the assay the target is T1, human 11betaHSD1 (Homo sapiens, UniProt P28845).
T1 construct: stably transfected with full-length human 11betaHSD1 cDNA; expressed in transfected cells
T1 sequence (P28845 whole entry): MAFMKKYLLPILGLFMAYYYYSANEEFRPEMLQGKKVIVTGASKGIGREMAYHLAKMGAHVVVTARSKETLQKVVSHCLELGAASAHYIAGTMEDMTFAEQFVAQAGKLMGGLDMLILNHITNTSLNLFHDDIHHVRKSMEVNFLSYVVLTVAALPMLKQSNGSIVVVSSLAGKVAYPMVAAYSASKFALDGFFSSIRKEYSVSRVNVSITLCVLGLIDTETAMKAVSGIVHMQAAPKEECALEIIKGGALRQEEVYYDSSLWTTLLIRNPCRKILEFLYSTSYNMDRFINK
Kind of assay: in vitro inhibition of 11β-HSD1 in H4IIE cells stably transfected with human 11betaHSD1 (cortisone to cortisol, ELISA). It counts as cell-based. The conditions noted are these: H4IIE cells stably transfected with full-length human 11betaHSD1 cDNA; 200 nM cortisone, 2 hours at 37° C.; cortisol by competitive ELISA. The protocol:
H4IIE cells stably transfected with full-length human 11betaHSD1 cDNA were propagated and expanded in DMEM high glucose media (Invitrogen Cat# 11995-065), supplemented with 10% FCS (Invitrogen Cat# 10082-147), 100 units/mL and 100 μg/mL pen/strep (Invitrogen Cat#15140-122), and geneticin (800 μg/mL). One day prior to assay, cells were released from flasks using trypsin/EDTA, centrifuged, and washed with plating media (DMEM high glucose, without phenol red; Invitrogen Cat# 21063-029, supplemented with 2% charcoal stripped FCS; Gemini Cat# 100-119). From a 500,000 cells/mL suspension in plating media, 200 μL of cells were seeded into each well of a 96-well coated plate (BioCoat Cat#356461) and cultured overnight at 37° C. The following day, serially diluted 11betaHSD1 inhibitor compounds dissolved in DMSO were added to DMEM with BSA (2 mg/mL final). The final DMSO concentration was 1%. Media was aspirated from plates, and compounds in media were added to each well. The plates were incubated at 37° C. for 1 hour to allow for cellular uptake of compounds. 10 μL of substrate (cortisone) was then added to each well (200 nM final concentration) and incubated for 2 hours at 37° C. Plates were then transferred to ice and 80 μL of media transferred to a 96-well plate and stored at −30° C.
Quantitation of cortisol in cell media was performed by competitive ELISA using ELISA-Light (Tropix Cat# T10206/EL100S4), anti-cortisol EIA antibody (Assay Designs, Inc. Cat#80-1148), and cortisol-enzyme conjugate (Assay Designs, Inc. Cat# 80-1147). 384-well plates (Falcon Cat#353988) were precoated with anti-mouse IgG (Sigma Cat# M-1397) suspended in 0.9% NaCl (5 mg/mL), 50 μL per well, overnight at 4° C. Plates were washed with PBS, 0.1% Tween-20, then washed with PBS alone. Plates were blocked with Blocking Buffer (Tropix Cat# AI075) for 2 hours at room temperature. The plates were then washed as previously described. Assay samples were thawed, diluted 1:8 in DMEM, 2 mg/mL BSA, 1% DMSO, and 24 μL was transferred to wells of a pre-coated 384-well plate, as well as varying amounts of cortisol standard. To each well, 12 μL of cortisol-conjugate and 12 μL of anti-cortisol EIA antibody were added and incubated 2 hrs at room temperature on a orbital plate shaker. The wells were then emptied by inversion, then washed three times with 100 μL of PBS, 0.05% Tween-20, and then 2 times with 100 μL of Assay Buffer (Tropix). 60 μL of CDP-STAR (Tropix) was added to each well and incubated 10 minutes at room temperature. Chemiluminescence was measured using a Victor V Reader (Perkin Elmer). Cortisol in each sample was interpolated from a standard curve generated with known amounts of cortisol. IC50 values were calculated using the curve fitting software XLFit4 (IDBS).
For `CC(C)Nc1c(C(=O)NC2C3CC4CC(C3)CC2C4)cnn1-c1ccccc1` (stereo not drawn) [Example 1, 5-Isopropylamino-1-phenyl-1H-pyrazole-4-carboxylic acid adamantan-2-ylamide], the IC50 amounted to 1.3 nM.

`O=C(NC1C2CC3CC(C2)CC1C3)c1cnn(-c2ccccc2)c1NCc1ccccc1` (stereo not drawn) [Example 2, 5-Benzylamino-1-phenyl-1H-pyrazole-4-carboxylic acid adamantan-2-ylamide] gave a concentration for half-maximal inhibition (IC50) of 14 nM.

`O=C(NC1C2CC3CC(C2)CC1C3)c1cnn(-c2ccccc2)c1NCc1cccnc1` (stereo not drawn) [Example 3, 1-Phenyl-5-[(pyridin-3-ylmethyl)-amino]-1H-pyrazole-4-carboxylic acid adamantan-2-ylamide] displayed an IC50 of 350 nM.

`O=C(NC1C2CC3CC(C2)CC1C3)c1cnn(-c2ccccc2)c1NCC1CC1` (stereo not drawn) [Example 4, 5-(Cyclopropylmethyl-amino)-1-phenyl-1H-pyrazole-4-carboxylic acid adamantan-2-ylamide] returned an IC50 of 1.9 nM.

Turning to `O=C(NC1C2CC3CC(C2)CC1C3)c1cnn(-c2ccccc2)c1NC1CCCCC1` (stereo not drawn) [Example 5, 5-Cyclohexylamino-1-phenyl-1H-pyrazole-4-carboxylic acid adamantan-2-ylamide], the IC50 was determined as 4.7 nM.

Turning to `O=C(NC1C2CC3CC(C2)CC1C3)c1cnn(-c2ccccc2)c1NC1CCC1` (stereo not drawn) [Example 6, 5-Cyclobutylamino-1-phenyl-1H-pyrazole-4-carboxylic acid adamantan-2-ylamide], the IC50 came out at 7.6 nM.

The compound `CC1CCC(C)N1c1c(C(=O)NC2C3CC4CC(C3)CC2C4)cnn1-c1ccccc1` (stereo not drawn) [Example 7, 5-(2,5-Dimethyl-pyrrolidin-1-y1)-1-phenyl-1H-pyrazole-4-carboxylic acid adamantan-2-ylamide] had an IC50 of 4 nM.

Compound `CC1CCCN1c1c(C(=O)NC2C3CC4CC(C3)CC2C4)cnn1-c1ccccc1` (stereo not drawn) [Example 8, 5-(2-Methyl-pyrrolidin-1-y1)-1-phenyl-1H-pyrazole-4-carboxylic acid adamantan-2-ylamide] registered a half-inhibitory concentration (IC50) of 1.3 nM.

The compound `CC1CCCN(c2c(C(=O)NC3C4CC5CC(C4)CC3C5)cnn2-c2ccccc2)C1` (stereo not drawn) [Example 9, 5-(3-Methyl-piperidin-1-y1)-1-phenyl-1H-pyrazole-4-carboxylic acid adamantan-2-ylamide] came in with an IC50 of 3 nM.

`CN(Cc1ccccc1)c1c(C(=O)NC2C3CC4CC(C3)CC2C4)cnn1-c1ccccc1` (stereo not drawn) [Example 10, 5-(Benzyl-methyl-amino)-1-phenyl-1H-pyrazole-4-carboxylic acid adamantan-2-ylamide] had a concentration for half-maximal inhibition (IC50) of 9.1 nM.

The compound `CN(CCc1ccccc1)c1c(C(=O)NC2C3CC4CC(C3)CC2C4)cnn1-c1ccccc1` (stereo not drawn) [Example 11, 5-(Methyl-phenethyl-amino)-1-phenyl-1H-pyrazole-4-carboxylic acid adamantan-2-ylamide] showed an IC50 of 3.7 nM.

`CC1CN(c2c(C(=O)NC3C4CC5CC(C4)CC3C5)cnn2-c2ccccc2)CC(C)O1` (stereo not drawn) [Example 12, 5-(2,6-Dimethyl-morpholin-4-y1)-1-phenyl-1H-pyrazole-4-carboxylic acid adamantan-2-ylamide]: the IC50 came to 3.7 nM.

`O=C(NC1C2CC3CC(C2)CC1C3)c1cnn(-c2ccccc2)c1N1CCCC1` (stereo not drawn) [Example 13, 1-Phenyl-5-pyrrolidin-1-y1-1H-pyrazole-4-carboxylic acid adamantan-2-ylamide] yielded an IC50 of 0.55 nM.

Compound `O=C(NC1C2CC3CC(C2)CC1C3)c1cnn(-c2ccccc2)c1N1CCCCCC1` (stereo not drawn) [Example 14, 5-Azepan-1-y1-1-phenyl-1H-pyrazole-4-carboxylic acid adamantan-2-ylamide] displayed an IC50 of 1 nM.

Consider `O=C(NC1C2CC3CC(C2)CC1C3)c1cnn(-c2ccccc2)c1N1CCOCC1` (stereo not drawn) [Example 15, 5-Morpholin-4-y1-1-phenyl-1H-pyrazole-4-carboxylic acid adamantan-2-ylamide], for which the IC50 turned out to be 3 nM.

For the compound `O=C(NC1C2CC3CC(C2)CC1C3)c1cnn(-c2ccccc2)c1N1CCCC(CO)C1` (stereo not drawn) [Example 16, 5-(3-Hydroxymethyl-piperidin-1-y1)-1-phenyl-1H-pyrazole-4-carboxylic acid adamantan-2-ylamide], the IC50 stood at 6.4 nM.

`O=C(NC1C2CC3CC(C2)CC1C3)c1cnn(-c2ccccc2)c1N1CCC[C@H]1CO` (stereo partly drawn) [Example 17, 5-((S)-2-Hydroxymethyl-pyrrolidin-1-y1)-1-phenyl-1H-pyrazole-4-carboxylic acid adamantan-2-ylamide] had an IC50 of 42 nM.

`O=C(NC1C2CC3CC(C2)CC1C3)c1cnn(-c2ccccc2)c1N1CCC(O)CC1` (stereo not drawn) [Example 18, 5-(4-Hydroxy-piperidin-1-y1)-1-phenyl-1H-pyrazole-4-carboxylic acid adamantan-2-ylamide] displayed an IC50 of 3 nM.

`O=C(NC1C2CC3CC(C2)CC1C3)c1cnn(-c2ccccc2)c1N1CCCC(O)C1` (stereo not drawn) [Example 19, 5-(3-Hydroxy-piperidin-1-y1)-1-phenyl-1H-pyrazole-4-carboxylic acid adamantan-2-ylamide] returned a half-maximal inhibitory concentration (IC50) of 9.2 nM.

As to `O=C(NC1C2CC3CC(C2)CC1C3)c1cnn(-c2ccccc2)c1N1CCC(O)C1` (stereo not drawn) [Example 20, 5-(3-Hydroxy-pyrrolidin-1-y1)-1-phenyl-1H-pyrazole-4-carboxylic acid adamantan-2-ylamide], the IC50 came to 13 nM.

Consider `CC(O)CNc1c(C(=O)NC2C3CC4CC(C3)CC2C4)cnn1-c1ccccc1` (stereo not drawn) [Example 21, 5-(2-Hydroxy-propylamino)-1-phenyl-1H-pyrazole-4-carboxylic acid adamantan-2-ylamide], for which the IC50 worked out at 41 nM.

The compound `O=C(NC1C2CC3CC(C2)CC1C3)c1cnn(-c2ccccc2)c1NCCO` (stereo not drawn) [Example 22, 5-(2-Hydroxy-ethylamino)-1-phenyl-1H-pyrazole-4-carboxylic acid adamantan-2-ylamide] gave an IC50 of 21 nM.

Turning to `O=C(NC1C2CC3CC(C2)CC1C3)c1cnn(-c2ccccc2)c1NCCCO` (stereo not drawn) [Example 23, 5-(3-Hydroxy-propylamino)-1-phenyl-1H-pyrazole-4-carboxylic acid adamantan-2-ylamide], the half-inhibitory concentration (IC50) is 55 nM.

As for `O=C(NC1C2CC3CC(C2)CC1C3)c1cnn(-c2ccccc2)c1NCCCCO` (stereo not drawn) [Example 24, 5-(4-Hydroxy-butylamino)-1-phenyl-1H-pyrazole-4-carboxylic acid adamantan-2-ylamide], the IC50 came to 7.5 nM.

`O=C(NC1C2CC3CC(C2)CC1C3)c1cnn(-c2ccccc2)c1NCC1CCCO1` (stereo not drawn) [Example 25, 1-Phenyl-5-[(tetrahydro-furan-2-ylmethyl)-amino]-1H-pyrazole-4-carboxylic acid adamantan-2-ylamide]: the IC50 was determined as 2 nM.

Compound `CN(CCO)c1c(C(=O)NC2C3CC4CC(C3)CC2C4)cnn1-c1ccccc1` (stereo not drawn) [Example 26, 5-[(2-Hydroxy-ethyl)-methyl-amino]-1-phenyl-1H-pyrazole-4-carboxylic acid adamantan-2-ylamide] returned an IC50 of 14 nM.

Regarding `COCCCNc1c(C(=O)NC2C3CC4CC(C3)CC2C4)cnn1-c1ccccc1` (stereo not drawn) [Example 27, 5-(3-Methoxy-propylamino)-1-phenyl-1H-pyrazole-4-carboxylic acid adamantan-2-ylamide], the 50% inhibitory concentration (IC50) worked out at 1.4 nM.
